XC50 data for 63 molecules are collected here from ChEMBL document CHEMBL1157539, “Thousands of chemical starting points for antimalarial lead identification” (Nature, 2010).

For this test, the system named is Plasmodium falciparum. Nature of the test: GSK_TCMDC: Inhibition of Plasmodium falciparum 3D7 in whole erythrocytes, using parasite LDH activity as an index of growth. The test is classed as functional, organism-based. Particulars: Plasmodium falciparum, 3D7.
`O=[N+]([O-])c1cccc(/C=N/Nc2ccnc3cc(F)ccc23)c1` showed an XC50 of 910 nM.

`CC(C)(C)N1CCC(N(Cc2ccc(-c3ccc(C(F)(F)F)cc3)cc2)C(=O)Cn2c(CCc3cccc(F)c3F)cc(=O)c3cccnc32)CC1` registered an XC50 of 705 nM.

For the molecule `CCn1c(-c2nonc2N)nc2cnc(Oc3cccc(NC(=O)c4ccc(OCCN5CCCCC5)cc4)c3)cc21`, the XC50 stood at 1060 nM.

`CS(=O)(=O)CCNCc1nc(-c2ccc3ncnc(Nc4ccc(OCc5cccc(F)c5)c(Cl)c4)c3c2)cs1` came in with an XC50 of 771 nM.

As for `CC1(C)NC(N)=NC(=N)N1OCCCOc1ccccc1N`, the XC50 was 3.2 nM.

`O=C1OC(c2cc3ccccc3n2S(=O)(=O)c2ccccc2)(c2cc3ccccc3n2S(=O)(=O)c2ccccc2)c2ccccc21`: the XC50 amounted to 846 nM.

Consider `COCCNCc1ncsc1-c1ccc2c(Nc3cc(O)c(Cl)cc3F)ccnc2c1`, for which the XC50 stood at 547 nM.

Consider `CC[C@H]1CN2CC[C@@H]1C[C@H]2[C@H](O)c1cc(-c2cccnc2)nc2ccc(OC)cc12`, for which the XC50 came to 37.9 nM.

As to `COc1ccc2nccc(N3CCCN(CCNCc4ccc5c(n4)NC(=O)CS5)CC3)c2n1`, the XC50 was 155 nM.

`CN1CCCC1CCNCc1cccc(-c2cnc(N(C)C3CCCCC3)nc2)c1` (stereo not drawn) showed an XC50 of 853 nM.

The molecule `CCNc1cc(C)nc(Nc2ccc(NC(=O)c3ccccc3Br)cc2)n1` yielded an XC50 of 742 nM.

Regarding `COc1ccc(NC(=O)/C=C/c2ccccc2Cl)cc1OCCN1CCC(N2CCCC2)CC1`, the XC50 came out at 786 nM.

In turn, `CCc1ccc(OCCCON2C(=N)N=C(N)NC2(C)C)cc1` had an XC50 of 3.2 nM.

As to `CCCCCCCc1c2c(C)c(C(=O)OCC)nc-2cc2n1CC(C)=C2C`, the XC50 stood at 1140 nM.

Turning to `CCCCOc1ccc(N2C(N)=NC(N)=NC2(C)C)cc1`, the XC50 stood at 215 nM.

`CCC(CC)CN1C(=O)C(C)(c2ccccc2)N=C1N` (stereo not drawn): the XC50 was 1060 nM.

Take `CCCCC#Cc1cnc2nc(N)[nH]c(=O)c2n1`: the XC50 amounted to 646 nM.

Molecule `Cn1nc(-c2ccc(Cl)cc2)c2cc(C(=O)NCCN3CCOCC3)sc21` showed an XC50 of 721 nM.

In turn, `O=C(c1cncc(-c2ccccc2)c1)N(Cc1cncn1Cc1ccccc1F)CC1CC1` returned an XC50 of 804 nM.

With `O=C(Nc1cccc(CN2CCCN(CC3CC3)CC2)c1)c1ccc(Cl)c(Cl)c1`, the XC50 worked out at 1030 nM.

`Cc1cc(N[C@@H](Cc2ccccc2)C(=O)NC2CCCC2)nc(NCCOc2ccccc2)n1`: the XC50 was determined as 1110 nM.

As to `Cc1[nH]c2ccc([N+](=O)[O-])cc2c1C1=CCN(C)CC1`, the XC50 came to 335 nM.

As for `Cc1cccc(C)c1OC(=O)C(C)C(O)C1(Sc2ccccc2)CCN(C)CC1` (stereo not drawn), the XC50 came to 734 nM.

Regarding `Cc1cc2cc(NC(=O)Nc3ccnc4ccccc34)ccc2n1C`, the XC50 was 1090 nM.

For `O=C(Nc1ccc(Cl)cc1)Nc1ccc2nonc2c1`, the XC50 turned out to be 1100 nM.

In turn, `CC(C)Nc1cc(C(=O)N[C@@H](Cc2ccccc2)[C@H](O)CNC2CCOCC2)c(F)c(N2CCCCS2(=O)=O)c1` came in with an XC50 of 183 nM.

Consider `Cn1c(NCc2cc(F)cc3c2OCOC3)nc2cc(Nc3ccnc(Nc4cccc(CS(C)(=O)=O)c4)n3)ccc21`, for which the XC50 was 149 nM.

Molecule `O=C(c1cc2ccccc2o1)N1CCc2cc3nccc(N4CCN5CCC[C@H]5C4)c3cc21` had an XC50 of 812 nM.

Take `Fc1ccc(C(OCC2CCCN(Cc3cccc4cccnc34)C2)c2ccc(F)cc2)cc1` (stereo not drawn): the XC50 is 703 nM.

For the molecule `CC(=O)Oc1c(C2CCN(CCCCNC(=O)c3ccc(NC(=O)c4ccc(Cl)cc4)cc3)CC2)ccc2ccccc12`, the XC50 is 881 nM.

In turn, `Cc1nc2ccc(-c3ccc(OC(F)(F)F)cc3)cc2c(O)c1C#N` gave an XC50 of 20.7 nM.

Regarding `CCNCCCC(C)Nc1ccnc2cc(Cl)ccc12` (stereo not drawn), the XC50 was 200 nM.

Molecule `CCOc1c(Br)cc(Br)cc1CNCCCCNc1nc2ccccc2[nH]1` yielded an XC50 of 394 nM.

With `CCCCN1CCN(c2cc(NS(=O)(=O)c3cccc(C(=O)Nc4ccc(C(F)(F)F)cc4)c3)ccc2OC)CC1`, the XC50 came to 685 nM.

In turn, `CCCCOc1c(CCNCCCCNCCc2cc(OC)c3ccccc3c2OCCCC)cc(OC)c2ccccc12` came in with an XC50 of 925 nM.

In turn, `COc1cccc(CN2CCCC(OC(c3ccc(F)cc3)c3ccc(F)cc3)C2)c1O` (stereo not drawn) yielded an XC50 of 788 nM.

Consider `CN1CCN(c2ccc(-c3cccc(NC(=O)c4cccc(Cl)c4)c3)nn2)CC1`, for which the XC50 came to 579 nM.

The molecule `CN1CCC(Oc2ccc(NC(=O)c3ccc4c(=O)n(Cc5ccccc5)cnc4c3)cc2Cl)CC1` had an XC50 of 954 nM.

As for `O=C(c1ccc(O)c(-c2cc(Cl)cc(Cl)c2)c1)N(CCO)CCO`, the XC50 came out at 908 nM.

`CN1CCN(Cc2nc(-c3ccc4c(Nc5ccc(Oc6ccccc6)cc5)ccnc4c3)cs2)CC1` displayed an XC50 of 310 nM.

On to `Cc1cc(N2CCN(C(=O)OC(C)(C)C)CC2)ccc1N`, for which the XC50 was 865 nM.

In the case of `CC(C)OC(=O)c1ccc(NC(=O)N[C@@H](Cc2ccc(O)cc2)C(=O)NC2CC3CCC(C2)N3Cc2ccccc2)cc1` (stereo partly drawn), the XC50 was 1080 nM.

`O=C(Nc1ccc2c(c1)CNCC2)c1ccc(-c2ccc(Cl)cc2)cc1`: the XC50 turned out to be 662 nM.

The molecule `O=S(=O)(Nc1ccc(CCN2CCCCC2CCN2CCCC2)cc1)c1ccc(-c2ccccc2)cc1` (stereo not drawn) yielded an XC50 of 926 nM.

On to `COc1ccc(CCON2C(=N)N=C(N)NC2(C)C)cc1OC`, for which the XC50 was determined as 5.91 nM.

For `OC1(C(F)(F)F)CC(c2ccccc2)=NN1c1nncc(-c2ccccc2)n1` (stereo not drawn), the XC50 was found to be 735 nM.

Regarding `CN(Cc1ccccc1)C1CCCN(c2cc(NC(=O)c3cccs3)ccn2)C1` (stereo not drawn), the XC50 was determined as 1130 nM.

`CCCCN(C)CC#Cc1ccc2[nH]c(C)c(Cl)c(=O)c2c1` registered an XC50 of 130 nM.

As for `CCCCCC(NCCCC)c1ccc(OCCOc2ccc(C(CCCCC)NCCCC)cc2)cc1` (stereo not drawn), the XC50 is 1240 nM.

As to `CCCC[C@H](NC(=O)O[C@H](COc1ccc(OCc2ccccc2)cc1)C(C)(C)C)C(=O)C(=O)Nc1cc[nH]n1`, the XC50 came out at 991 nM.

The molecule `CC(C)CNCc1cccc(-c2cccc(CNCCCN3CCN(C)CC3)c2)c1` returned an XC50 of 1180 nM.

`COc1ccc2[nH]c(C)cc(=NN=Cc3ccccc3)c2c1` gave an XC50 of 1030 nM.

In turn, `O=C(Nc1ccccc1Cc1ccccc1)c1ccccc1C(F)(F)F` showed an XC50 of 782 nM.

For the molecule `Cc1[nH]c(C)c(-c2ccc(-c3ccccc3Cl)nc2)c(=O)c1Br`, the XC50 was determined as 171 nM.

The molecule `CC1(C)N=C(N)N=C(NOCCCCCCONC2=NC(N)=NC(C)(C)N2)N1` registered an XC50 of 33.3 nM.

The molecule `C=C[C@]1(C)C[C@@H](OC(=O)CNC[C@@H](O)CN2C[C@H](c3ccnc4ccc(OC)nc34)OC2=O)[C@@]2(C)[C@@H]3C(=O)CC[C@@]3(CC[C@@H]2C)[C@@H](C)[C@@H]1O` registered an XC50 of 948 nM.

In the case of `Cc1n[nH]c2cc(Nc3nccc(Nc4ccc(Oc5ccccc5)cc4)n3)ccc12`, the XC50 was 600 nM.

For `CCCCN(CCCC)CC(O)c1cc(-c2ccc(Cl)cc2)nc2c(Cl)cc(Cl)cc12` (stereo not drawn), the XC50 stood at 26.3 nM.

Consider `CC(C)Cn1c(Sc2ccc(C#N)c([N+](=O)[O-])c2)nnc1-c1cccc(Cl)c1`, for which the XC50 came out at 301 nM.

Molecule `O=C(C=Cc1ccc(Cl)c(Cl)c1)NCCCCCN1CCCC(CCCNS(=O)(=O)c2ccc(Br)cc2)C1` (stereo not drawn) returned an XC50 of 955 nM.

Regarding `COc1ccc2c(c1CCNCCCCNCCc1c(OC)ccc3c1CCCC3)CCCC2`, the XC50 was 376 nM.

Regarding `CCCCCn1c(Sc2ccc(C#N)c([N+](=O)[O-])c2)nnc1-c1ccc(Cl)cc1`, the XC50 was found to be 1080 nM.

In turn, `CCC(C(C)C)n1ccc2c3c(N)nc(N)nc3ccc21` (stereo not drawn) had an XC50 of 3.2 nM.
